According to PubChem BioAssay AID330 (DTP/NCI, 2004):
“And” between values parts separate entries of the source, which are not always exact repeats. Equal values may be shown once. Toxic doses and inconclusive results are not listed. Rule for the calls: active = survival T/C of 150% or more; inactive = T/C below 125% in these data.

Test system: P388 leukemia ip, CD2F1 mice, survival T/C
Assay: NCI In Vivo Anticancer Drug Screen. Data for tumor model P388 Leukemia (intraperitoneal) in CD2F1 (CDF1) mice
Conditions: endpoint: median survival time, higher = longer survival
Method in brief: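 Mice carrying the transplanted tumor received test compound or vehicle. Survival was recorded in each group, and the value is the treated-group measurement divided by that of the vehicle-treated control group.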

[1] = dose: 50.0 mg/kg/injection, schedule: Q01DX005 (ip), vehicle: saline with Tween-80
[2] = dose: 100.0 mg/kg/injection, schedule: Q01DX005 (ip), vehicle: saline with Tween-80
[3] = dose: 200.0 mg/kg/injection, schedule: Q01DX005 (ip), vehicle: saline with Tween-80
[4] = dose: 25.0 mg/kg/injection, schedule: Q01DX009 (ip), vehicle: saline with Tween-80
[5] = dose: 50.0 mg/kg/injection, schedule: Q01DX009 (ip), vehicle: saline with Tween-80
[6] = dose: 100.0 mg/kg/injection, schedule: Q01DX009 (ip), vehicle: saline with Tween-80
[7] = dose: 200.0 mg/kg/injection, schedule: Q01DX009 (ip), vehicle: saline with Tween-80
[8] = dose: 50.0 mg/kg/injection, schedule: Q01DX009 (ip), vehicle: Klucel (hydroxypropylcellulose) (HPC)
[9] = dose: 100.0 mg/kg/injection, schedule: Q01DX009 (ip), vehicle: Klucel (hydroxypropylcellulose) (HPC)
[10] = dose: 200.0 mg/kg/injection, schedule: Q01DX009 (ip), vehicle: Klucel (hydroxypropylcellulose) (HPC)
[11] = dose: 50.0 mg/kg/injection, schedule: Q04DX003 (ip), vehicle: saline with Tween-80
[12] = dose: 100.0 mg/kg/injection, schedule: Q04DX003 (ip), vehicle: saline with Tween-80
[13] = dose: 200.0 mg/kg/injection, schedule: Q04DX003 (ip), vehicle: saline with Tween-80
[14] = dose: 100.0 mg/kg/injection, schedule: Q04DX003 (ip), vehicle: saline
[15] = dose: 200.0 mg/kg/injection, schedule: Q04DX003 (ip), vehicle: saline
[16] = dose: 400.0 mg/kg/injection, schedule: Q04DX003 (ip), vehicle: saline
[17] = dose: 100.0 mg/kg/injection, schedule: Q01DX001 (ip), vehicle: saline with Tween-80
[18] = dose: 200.0 mg/kg/injection, schedule: Q01DX001 (ip), vehicle: saline with Tween-80
[19] = dose: 400.0 mg/kg/injection, schedule: Q01DX001 (ip), vehicle: saline with Tween-80

Measured: T/C

COc1cc(O)c(C(C)=O)c2c1C=CC(C)(C)O2
inactive: [1] 102 % of control | [2] 105 % of control | [3] 100 % of control

COc1ccc(C(=O)c2no[n+]([O-])c2C(=O)c2ccc(OC)cc2)cc1
inactive: [4] 108 % of control | [5] 104 % of control and 107 % of control | [6] 100 % of control and 106 % of control | [7] 115 % of control | dose: 400.0 mg/kg/injection, schedule: Q01DX009 (ip), vehicle: saline with Tween-80 123 % of control

CC(=O)Oc1[nH]c(=O)c2cccc3c2c1CCC3
inactive: [4] 102 % of control | [5] 101 % of control and 102 % of control | [6] 108 % of control and 112 % of control

O=[N+]([O-])c1cccc(C=Nc2ccc(/C=C/C3(CCl)OCCO3)cc2)c1
inactive: [8] 98 % of control | [9] 97 % of control | [10] 91 % of control

O=C1CSC(=S)N1c1cccc(Cl)c1
inactive: [8] 107 % of control and 122 % of control | [9] 118 % of control and 121 % of control | [10] 111 % of control | dose: 400.0 mg/kg/injection, schedule: Q01DX009 (ip), vehicle: Klucel (hydroxypropylcellulose) (HPC) 100 % of control

COC1=C(N=[N+]=[N-])C(=O)C(OC)=C(N=[N+]=[N-])C1=O
inactive: dose: 5.0 mg/kg/injection, schedule: Q01DX009 (ip), vehicle: saline with Tween-80 90 % of control | dose: 10.0 mg/kg/injection, schedule: Q01DX009 (ip), vehicle: saline with Tween-80 90 % of control | dose: 20.0 mg/kg/injection, schedule: Q01DX009 (ip), vehicle: saline with Tween-80 100 % of control

O=c1c2ccccc2sc2c(CO)ccc(NCCCN3CCN(CCCNc4ccc(CO)c5sc6ccccc6c(=O)c45)CC3)c12
inactive: dose: 0.67 mg/kg/injection, schedule: Q01DX005 (ip), vehicle: saline with Tween-80 93 % of control | dose: 1.25 mg/kg/injection, schedule: Q01DX005 (ip), vehicle: saline with Tween-80 104 % of control | dose: 2.5 mg/kg/injection, schedule: Q01DX005 (ip), vehicle: saline with Tween-80 107 % of control | dose: 5.0 mg/kg/injection, schedule: Q01DX005 (ip), vehicle: saline with Tween-80 95 % of control | dose: 10.0 mg/kg/injection, schedule: Q01DX005 (ip), vehicle: saline with Tween-80 104 % of control | dose: 20.0 mg/kg/injection, schedule: Q01DX005 (ip), vehicle: saline with Tween-80 94 % of control | dose: 40.0 mg/kg/injection, schedule: Q01DX005 (ip), vehicle: saline with Tween-80 86 % of control and 95 % of control | dose: 80.0 mg/kg/injection, schedule: Q01DX005 (ip), vehicle: saline with Tween-80 90 % of control

CC1(C)COC(CC2CCCCC2)=N1
inactive: [5] 104 % of control | [11] 100 % of control | [6] 100 % of control | [12] 104 % of control | [13] 90 % of control

C=C1C(=O)OC2CCCC(O)C12 (stereo not given)
inactive: dose: 50.0 mg/kg/injection, schedule: Q04DX003 (ip), vehicle: Klucel (hydroxypropylcellulose) (HPC) 106 % of control and 96 % of control | dose: 100.0 mg/kg/injection, schedule: Q04DX003 (ip), vehicle: Klucel (hydroxypropylcellulose) (HPC) 104 % of control | dose: 200.0 mg/kg/injection, schedule: Q04DX003 (ip), vehicle: Klucel (hydroxypropylcellulose) (HPC) 115 % of control

CCCCn1cnc2c(=S)nc[nH]c21
inactive: [1] 94 % of control | [2] 105 % of control | [3] 102 % of control

Cc1ccc(Sc2ccc3ccccc3n2)cc1
inactive: [1] 90 % of control | [2] 101 % of control | [3] 104 % of control

COc1cc(C(=O)CO)cc(OC)c1OC(C)=O
inactive: [12] 104 % of control and 105 % of control | [13] 116 % of control

CCOC(=O)C(C(=O)OCC)C1CCC2(C)CCC(=O)C=C2C1 (stereo not given)
inactive: [5] 95 % of control | [6] 100 % of control | [7] 105 % of control

CCCCn1c(=S)sc2ccccc21
inactive: [11] 98 % of control | [12] 100 % of control | [13] 104 % of control | dose: 400.0 mg/kg/injection, schedule: Q04DX003 (ip), vehicle: saline with Tween-80 104 % of control

C1=NCCN=Cc2ccccc2NCCNc2ccccc21
inactive: [14] 93 % of control | [15] 91 % of control | [16] 103 % of control

OC(CN1CCCC2CCCCC21)c1cc2ccccc2c2ccccc12 (stereo not given)
inactive: [6] 108 % of control | [7] 104 % of control

Cc1ccc(NC(=O)C2C(=O)N(c3ccc(C)c(C)c3)C(=O)C2N=N)cc1C (stereo not given)
inactive: [17] 100 % of control | [18] 101 % of control | [19] 91 % of control

CC1=C(C(=O)N2Cc3cc4ccccc4nc3C2)COC1=O
inactive: dose: 50.0 mg/kg/injection, schedule: Q01DX001 (ip), vehicle: saline with Tween-80 99 % of control | [17] 90 % of control | [18] 95 % of control | [19] 90 % of control

COC(=O)CN(CCCl)P1(=O)OCCCN1CCCl (stereo not given)
inactive: dose: 60.0 mg/kg/injection, schedule: Q01DX005 (ip), vehicle: saline with Tween-80 97 % of control | dose: 120.0 mg/kg/injection, schedule: Q01DX005 (ip), vehicle: saline with Tween-80 108 % of control

c1ccc(-c2nnn(-c3ccccc3)n2)cc1
inactive: dose: 12.5 mg/kg/injection, schedule: Q01DX009 (ip), vehicle: saline with Tween-80 91 % of control | [4] 91 % of control | [5] 91 % of control

Cc1cc(NCCCN(C)C)c2c(ccc3c(NCCCN(C)C)cc(C)nc32)n1
inactive: dose: 6.0 mg/kg/injection, schedule: Q01DX009 (ip), vehicle: suspension in saline 98 % of control | dose: 12.0 mg/kg/injection, schedule: Q01DX009 (ip), vehicle: suspension in saline 104 % of control | dose: 24.0 mg/kg/injection, schedule: Q01DX009 (ip), vehicle: saline with Tween-80 96 % of control | dose: 24.0 mg/kg/injection, schedule: Q01DX009 (ip), vehicle: suspension in saline 115 % of control

CC(=O)c1cc(C)ccc1S(C)=O (stereo not given)
inactive: dose: 50.0 mg/kg/injection, schedule: Q01DX005 (ip), vehicle: acetone 99 % of control | dose: 100.0 mg/kg/injection, schedule: Q01DX005 (ip), vehicle: acetone 100 % of control | dose: 200.0 mg/kg/injection, schedule: Q01DX005 (ip), vehicle: acetone 100 % of control

CC(CC1(c2ccccc2)C(=O)NC(=O)NC1=O)OC(=O)c1ccc([N+](=O)[O-])cc1 (stereo not given)
inactive: [8] 103 % of control | [9] 100 % of control | [10] 99 % of control

CCN(CC)Cc1ccccc1CO
inactive: dose: 50.0 mg/kg/injection, schedule: Q01DX005 (ip), vehicle: saline 110 % of control | dose: 100.0 mg/kg/injection, schedule: Q01DX005 (ip), vehicle: saline 106 % of control

O=C(CCSCCCl)Nc1c(C(=O)O)cc([N+](=O)[O-])cc1[N+](=O)[O-]
inactive: dose: 3.13 mg/kg/injection, schedule: Q04DX003 (ip), vehicle: DMSO 94 % of control | dose: 6.25 mg/kg/injection, schedule: Q04DX003 (ip), vehicle: DMSO 100 % of control | dose: 12.5 mg/kg/injection, schedule: Q04DX003 (ip), vehicle: DMSO 102 % of control | dose: 25.0 mg/kg/injection, schedule: Q04DX003 (ip), vehicle: DMSO 111 % of control | dose: 50.0 mg/kg/injection, schedule: Q04DX003 (ip), vehicle: DMSO 102 % of control and 109 % of control | dose: 100.0 mg/kg/injection, schedule: Q04DX003 (ip), vehicle: DMSO 116 % of control

CC1CCC2(CC1)CCN(CCCN(C)C)CC2
inactive: dose: 50.0 mg/kg/injection, schedule: Q01DX009 (ip), vehicle: saline 99 % of control | dose: 100.0 mg/kg/injection, schedule: Q01DX009 (ip), vehicle: saline 103 % of control

CC1C(=O)N(c2ccccc2)c2nc3ccccc3nc21 (stereo not given)
inactive: [14] 88 % of control | [15] 97 % of control | [16] 111 % of control

FC(F)(F)C1(C(F)(F)F)CC2COc3ccccc3C2=N1 (stereo not given)
inactive: dose: 50.0 mg/kg/injection, schedule: Q04DX002 (ip), vehicle: suspension in saline 100 % of control | dose: 100.0 mg/kg/injection, schedule: Q04DX002 (ip), vehicle: suspension in saline 99 % of control | dose: 200.0 mg/kg/injection, schedule: Q04DX002 (ip), vehicle: suspension in saline 100 % of control
